Assay results: patent US20090221690A1, “Pharmaceutical Composition for the Prevention/Treatment of Bone Disorders and a Process for the Preparation Thereof” (COUNCIL OF SCIENTIFIC AND INDUSTRIAL RESEARCH, priority 2006, published 2009)

What was measured:
[1] = system: bilaterally ovariectomized immature rats; test: Estrogen agonistic activity (uterine weight gain); assay type: in vivo, rat; settings: 0.01 mg/kg/d, oral, 3 days
Description: The test agents were administered once daily for 3 consecutive days by the oral route and uterine weight gain over the corresponding vehicle control group was determined. 17α-Ethynylestradiol was used as reference standard.

[2] = system: labeled chick fetal bones in culture; test: Chick fetal bone culture assay, bone forming activity; assay type: cell-based; settings: 0.4 μM; T/C close to unity = no bone forming activity
Description: A slight modification of the method of Raisz (Nature 197: 1015-1016, 1963) was employed. Femur bones are isolated from chick embryos on day 11 post-ovulation and cleared of adhering connective tissue by carefully rotating each bone on dry Whatman (I) filter paper under stereomicroscope. Each femur bone is then placed in a drop of PBS before culturing in BGJb medium (pH 7.3) supplemented with penicillin (0.075 mg/ml), streptomycin (0.05 mg/ml), HEPES (2.382 mg/ml) and BSA (1 mg/ml), transferred to BGJb culture medium containing ^45CaCl2 (0.5 μCi/300 μl culture medium) and incubated for 2 h at 37° C. under 5% CO2 in air. Labeled femur bones are then washed with BGJb medium for 24 h at 37° C. under 5% CO2 in air. […]
Contralateral femur of each fetus serves as corresponding control. […] Radioactivity due to ^45Ca in the spent medium collected at 24, 48 and 96 h of culture and HCl extract at 96 h of culture is quantified by Liquid Scintillation Spectrophotometer in 10 ml of the scintillation fluid (ACS II scintillation cocktail, Amersham Biosciences, UK). […]
Bone forming activity (cpm)=A×(A/B)^1/2 ×Total radioactivity incorporated into bone during 24 h incubation with ^45Ca
where total radioactivity refers to ^45Ca released into the medium during first 24 hrs incubation+^45Ca released into the medium during 24 to 96 hr of incubation+^45Ca remaining in the femur. […]

[3] = system: Ishikawa (human uterine glandular epithelial carcinoma) cell line; test: MTT proliferation assay in Ishikawa cell line; assay type: cell-based; settings: 10 nM and 1 μM; Ishikawa cells; FIG. 2
[4] = system: MCF-7 (human cancer breast) cell line; test: MTT proliferation assay in MCF-7 cell line; assay type: cell-based; settings: 10 nM and 1 μM; MCF-7 cells; FIG. 2
[5] = system: PTH-induced resorption of ^45Ca from chick fetal bones in culture; test: Chick fetal bone culture assay, bone antiresorbing activity; assay type: cell-based; settings: 100 μM; vehicle 1.03; T/C close to unity = no antiresorbing activity
Description: A slight modification of the method of Raisz (Nature 197: 1015-1016, 1963) was employed. Femur bones are isolated from chick embryos on day 11 post-ovulation and cleared of adhering connective tissue by carefully rotating each bone on dry Whatman (I) filter paper under stereomicroscope. Each femur bone is then placed in a drop of PBS before culturing in BGJb medium (pH 7.3) supplemented with penicillin (0.075 mg/ml), streptomycin (0.05 mg/ml), HEPES (2.382 mg/ml) and BSA (1 mg/ml), transferred to BGJb culture medium containing ^45CaCl2 (0.5 μCi/300 μl culture medium) and incubated for 2 h at 37° C. under 5% CO2 in air. Labeled femur bones are then washed with BGJb medium for 24 h at 37° C. under 5% CO2 in air. An aliquot of the medium was withdrawn for the measurement of ^45Ca released into the medium from bone during the first 24 h. […] Radioactivity due to ^45Ca in the spent medium collected at 24, 48 and 96 h of culture and HCl extract at 96 h of culture is quantified by Liquid Scintillation Spectrophotometer in 10 ml of the scintillation fluid (ACS II scintillation cocktail, Amersham Biosciences, UK). […] Bone anti-resorbing activity is expressed as percentage of ^45Ca released into the culture medium and the effect of the agent of invention as percent of the corresponding contra-lateral control or T/C ratio as shown below. […]

[6] = system: primary osteoblasts; test: MTT assay for cell proliferation, primary osteoblast cell culture; assay type: cell-based, Balb/c mouse; settings: 24 h; for Osteoblast cell proliferation (MTT assay): Vehicle 0.60 ± 0.06, Mean±SEM
Description: (§1) Neonatal mouse calvarial cell cultures are prepared as described previously (Endocrinology 139:4743) using slight modification. Briefly, for primary osteoblast cell cultures, frontal and parietal bones from Balb/c mouse neonates (1-3 day old) are digested in 0.1% collagenase/0.1% dispase in α-MEM to obtain 5 sequential digests. The second through fifth digests are combined and grown to confluence at 37° C. and 5% CO2 in air in α-MEM, supplemented with 10% fetal bovine serum (FBS), 2 mM glutamine, 100 U/ml penicillin-streptomycin, Non-essential amino acid solution and sodium pyruvate. The effect of test agents is analysed using the following tests:
MTT assay is a common assay used for assessing cell proliferation where tetrazolium salt is reduced to formazone crystals by the mitochondrial dehydrogenase enzyme, which are then dissolved in DMSO. More the number of metabolically active cells more will be the formazone crystals formed. Briefly, osteoblast cells are maintained in α-MEM medium supplemented with 10% FCS and 1% antibiotic solution in 96 well plate. When the cells attain 40% confluency, they are treated in presence or absence of test agents in 2% FCS supplemented media for 24 h. Twenty-four hours thereafter, MTT salt is added to the cells. After 4 h, the formazone crystals formed are dissolved in DMSO and readings taken at wavelength of 570 nm.
This assay is based on the ability of viable cells to reduce tetrazolium salt to form formazone crystals by mitochondrial dehydrogenase enzyme. In MTT assay, osteoblasts are maintained in α-MEM medium supplemented with 10% FCS and 1% antibiotic solution in 96 well plate. When the cells attain 40% confluency, they are treated in presence or absence of test agents in 2% FCS supplemented media for 24 h. Twenty-four hours thereafter, MTT salt is added to the cells. After 4 h, the formazone crystals formed due to reduction of tetrazolium salt by mitochondrial dehydrogenase enzyme are dissolved in DMSO and readings taken at wavelength of 570 nm. All the five pure compounds nos.

[7] = system: osteoblasts cultured on sterile bovine bone slices; test: Mineralisation by osteoblasts cultured on bovine bone slices, Alizarin red staining; assay type: cell-based, Balb/c mouse; settings: 15 days, FIGS. 14 and 15
Description: as §1
(§2) Cells are seeded onto sterile bovine bone slices in 96-well plate and treated with the culture medium containing α-MEM, supplemented with 10% fetal bovine serum, 2 mM glutamine, 100 U/ml penicillin-streptomycin, non-essential amino acid solution, sodium pyruvate, 10 mM P-glycerophosphate and 50 μg/ml ascorbic acid. Culture medium is changed every alternate day. At termination of the culture, cells are washed twice with PBS, fixed in cold 70% ethanol for 1 h and washed once with water and stained with 40 mM Alizarin red (pH 4.7) for 30 min and then washed in PBS to remove excess staining.
as §2, with “In case of osteoblasts” for “Cells are”, “slices, the cells are cultured” for “slices”, “in A-MEM” for “and treated with the culture medium containing α-MEM,”, “p-glycerophosphate” for “P-glycerophosphate”, “acid in the absence or presence of test compounds or their mixtures.” for “acid.”, “culture after 15 days,” for “culture,”

[8] = system: osteoblasts; test: Quantification of alkaline phosphatase activity in osteoblasts; assay type: cell-based, Balb/c mouse; design: alkaline phosphatase activity: unit not given here; settings: 48 h; for alkaline phosphatase activity: Control 1.87 ± 0.20, Mean±SEM
Description: as §1
p-Nitrophenol phosphate is a colorless substrate which is hydrolysed to colored p-nitrophenol by alkaline phosphatase enzyme. Rate of hydrolysis of p-nitrophenol phosphate is proportional to enzyme present in sample. […] Findings reveal that all the five pure compounds nos.

[9] = system: osteoblast cells; test: Quantification of mineralization in osteoblasts (Alizarin red, acetic acid extraction); assay type: cell-based, Balb/c mouse; settings: osteoblasts cultured 7 days; vs vehicle control; FIG. 13
Description: as §1
For quantification of mineralization which is measured with increased deposition of nascent calcium in osteoblast cells, cells were cultured in the presence of test compounds for 7 days and stained with Alizarin red. Alizarin red was extracted with acetic acid and the intensity of stain, which is directly proportion to the extent of mineralisation, is read at 405 nm.

[10] = system: osteoblasts; test: Osteogenic activity of isolated compounds based on alkaline phosphatase expression, MTT and mineralisation in vitro; assay type: cell-based
Source text: K051, K052, K054, K080, K082 (isolated from n-butanol soluble fraction) and K095 (isolated from chloroform soluble fraction) (FIGS. 11-15; Tables 10-11).

[11] = system: Cladosporium cladosporioides; settings: Bandara et al. 1989/1990; cited from earlier work

## C#C[C@]1(O)CC[C@H]2[C@@H]3CCc4cc(O)ccc4[C@H]3CC[C@@]21C [17α-Ethynylestradiol]
[1]
  Uterine weight gain: 514%

## PTH (aa 1-34): Parathyroid hormone (PTH; aa 1-34), an osteogenic agent, taken as positive control (SVSEIQLMHNLGKHLNSMERVEWLRKKLQDVHNF; Parathyroid hormone; UniProt P01270 32-65, looked up, fragment)
[2]
  T/C ratio (bone forming activity): 0.44

## C[C@]12CC[C@@H]3c4ccc(O)cc4CC[C@H]3[C@@H]1CC[C@@H]2O [Estradiol-17β]
[3]
  proliferation: marked increase in proliferation
[4]
  proliferation: marked increase in proliferation
[5]
  T/C ratio (PTH-induced resorption of ^45Ca): 0.37

## COc1ccc2c(c1)OC1c3ccc(O)cc3OCC21 (centres unmarked) [Compound K095, 3-hydroxy-9-methoxypterocarpans]
[6]; 10^−5 M
  Osteoblast cell proliferation (MTT assay): 1.28 ± 0.08
[6]; 10^−6 M
  Osteoblast cell proliferation (MTT assay): 1.47 ± 0.14
[6]; 10^−7 M
  Osteoblast cell proliferation (MTT assay): 1.35 ± 0.16
[6]; 10^−8 M
  Osteoblast cell proliferation (MTT assay): 1.24 ± 0.18
[6]; 10^−9 M
  Osteoblast cell proliferation (MTT assay): 1.14 ± 0.19
[6]; 10^−10 M
  Osteoblast cell proliferation (MTT assay): 1.38 ± 0.18
[6]; 10^−11 M to 10^−5 M
  osteoblast cell proliferation vs vehicle control: enhanced osteoblast cell proliferation
[6]; 10^−11 M
  Osteoblast cell proliferation (MTT assay): 1.05 ± 0.03
[7]
  relative potency in mineralisation on bovine bone slices: most potent
[7]; osteoblasts on bovine bone slices, alone or in combination
  intensity of alizarin red staining (rate of new bone formation): increased intensity of alizarin red staining
[8]; 10^−5 M
  alkaline phosphatase activity: 3.28 ± 0.07
[8]; 10^−6 M
  alkaline phosphatase activity: 3.42 ± 0.07
[8]; 10^−7 M
  alkaline phosphatase activity: 3.50 ± 0.07
[8]; 10^−8 M
  alkaline phosphatase activity: 3.35 ± 0.10
[8]; 10^−9 M
  alkaline phosphatase activity: 3.54 ± 0.04
[8]; 10^−10 M
  alkaline phosphatase activity: 3.40 ± 0.07
[8]; 10^−11 M to 10^−5 M
  expression of alkaline phosphatase vs vehicle control: increased expression of alkaline phosphatase
[8]; 10^−11 M
  alkaline phosphatase activity: 3.51 ± 0.01
[9]
  mineralisation quantified by alizarin extraction method: enhanced mineralisation
[10]
  osteogenic activity: promising osteogenic activity
[11]
  activity against Cladosporium cladosporioides: active
